pIC50: −log10 of the molar value. Calls of active or inactive are those of the source.
What was measured:
[1] = tested on: Mus musculus; assay: (§1) Antiallodynic activity in oxaliplatin-induced peripheral neuropathy pain CD-1 mouse model assessed as inhibition of early-phase tactile allodynia by measuring pain sensitivity threshold at 22.5 mg/kg administered with compound intraperitoneally at 3 hrs after oxaliplatin stimulation and measured after 30 mins by von Frey test (reference value: 61.2 %); type: functional; design: scale not given: the % may be the effect or the level left; conditions: 0.5 h
[2] = tested on: Rattus norvegicus; assay: Antiinflammatory activity against Wistar (Krf:WI) rat assessed as reduction in carragenan-induced paw edema at 22.5 mg/kg treated prior to carrageenan challenge and measured after 1 hr by plethysmometry relative to control; type: functional
[3] = tested on: Rattus norvegicus; assay: Analgesic activity in carragenan-induced thermal hyperalgesia model of Wistar (Krf:WI) rat assessed as latency of nociceptive response for radiant heat stimulation at 30 mg/kg treated prior to carrageenan challenge and measured after 1 hr (reference value: 71.4%); type: functional
[4] = tested on: Rattus norvegicus; assay: Antiinflammatory activity against Wistar (Krf:WI) rat assessed as reduction in carragenan-induced paw edema at 30 mg/kg treated prior to carrageenan challenge and measured after 1 hr by plethysmometry relative to control; type: functional
[5] = tested on: Rattus norvegicus; assay: Analgesic activity in carragenan-induced thermal hyperalgesia model of Wistar (Krf:WI) rat assessed as latency of nociceptive response for radiant heat stimulation at 30 mg/kg treated prior to carrageenan challenge and measured after 6 hrs (reference value: 43.2%); type: functional
[6] = tested on: Rattus norvegicus; assay: Analgesic activity in carragenan-induced thermal hyperalgesia model of Wistar (Krf:WI) rat assessed as latency of nociceptive response for radiant heat stimulation at 30 mg/kg treated prior to carrageenan challenge and measured after 2 hrs (reference value: 63.6%); type: functional
[7] = tested on: Rattus norvegicus; assay: Antiinflammatory activity against Wistar (Krf:WI) rat assessed as reduction in carragenan-induced paw edema at 22.5 mg/kg treated prior to carrageenan challenge and measured after 2 hrs by plethysmometry relative to control; type: functional
[8] = tested on: Mus musculus; assay: as §1, with “late-phase” for “early-phase”, “7 days” for “3 hrs”, “65.3%)” for “61.2 %)”; type: functional; design: scale not given: the % may be the effect or the level left; conditions: 0.5 h
[9] = target: Cholinesterase (Equus caballus) (UniProt P81908); assay: Non-competitive inhibition of equine serum BChE using BTCI as substrate incubated for 5 mins followed by substrate addition and measured after 5 mins by spectrophotometric based Cornish-Bowden plot analysis; type: cell-free; conditions: time 10.0 min
[10] = tested on: Rattus norvegicus; assay: Memory enhancement effect in dizocilpine-induced Wistar (Krf:WI) rat model of amnesia assessed as decrease in transfer latency time at 1.25 to 5 mg/kg, ip measured after 30 to 45 mins by elevated plus maze test; type: functional, organism-based; conditions: dose 1.25-5 mg/kg, time 30-45 min
[11] = target: Acetylcholinesterase (Electrophorus electricus) (UniProt O42275); assay: Non-competitive inhibition of Electric eel AChE using ATCI as substrate incubated for 5 mins followed by substrate addition and measured after 5 mins by spectrophotometric based Lineweaver-Burk plot analysis; conditions: time 10.0 min
[12] = tested on: Rattus norvegicus; assay: Antiinflammatory activity against Wistar (Krf:WI) rat assessed as reduction in carragenan-induced paw edema at 22.5 mg/kg treated prior to carrageenan challenge and measured after 3 hrs by plethysmometry relative to control; type: functional
[13] = tested on: Rattus norvegicus; assay: Antiinflammatory activity against Wistar (Krf:WI) rat assessed as reduction in carragenan-induced paw edema at 30 mg/kg treated prior to carrageenan challenge and measured after 24 hrs by plethysmometry relative to control; type: functional
[14] = tested on: Rattus norvegicus; assay: Analgesic activity in carragenan-induced thermal hyperalgesia model of Wistar (Krf:WI) rat assessed as latency of nociceptive response for radiant heat stimulation at 30 mg/kg treated prior to carrageenan challenge and measured after 24 hrs (reference value: 83.3%); type: functional
[15] = target: Acetylcholinesterase (Electrophorus electricus, UniProt O42275)
Description: Inhibition of Electric eel AChE using ATCI as substrate incubated for 5 mins followed by substrate addition and measured after 5 mins by spectrophotometric based Ellman's method

[16] = tested on: Rattus norvegicus; assay: Analgesic activity in carragenan-induced thermal hyperalgesia model of Wistar (Krf:WI) rat assessed as latency of nociceptive response for radiant heat stimulation at 30 mg/kg treated prior to carrageenan challenge and measured after 3 hrs (reference value: 50.3%); type: functional
[17] = tested on: Mus musculus; assay: as §1, with “threshold” for “threshold at 22.5 mg/kg”, “test” for “test (reference value: 61.2 %)”; type: functional, organism-based; conditions: dose 15-30 mg/kg
[18] = target: T1, MAO-A (Homo sapiens, UniProt P21397); assay: Inhibition of recombinant human MAO-A expressed in baculovirus infected BTI cells at 10 uM using p-tyramine as substrate by fluorometric assay relative to control; conditions: probe p-tyramine
T1 sequence (P21397 whole entry): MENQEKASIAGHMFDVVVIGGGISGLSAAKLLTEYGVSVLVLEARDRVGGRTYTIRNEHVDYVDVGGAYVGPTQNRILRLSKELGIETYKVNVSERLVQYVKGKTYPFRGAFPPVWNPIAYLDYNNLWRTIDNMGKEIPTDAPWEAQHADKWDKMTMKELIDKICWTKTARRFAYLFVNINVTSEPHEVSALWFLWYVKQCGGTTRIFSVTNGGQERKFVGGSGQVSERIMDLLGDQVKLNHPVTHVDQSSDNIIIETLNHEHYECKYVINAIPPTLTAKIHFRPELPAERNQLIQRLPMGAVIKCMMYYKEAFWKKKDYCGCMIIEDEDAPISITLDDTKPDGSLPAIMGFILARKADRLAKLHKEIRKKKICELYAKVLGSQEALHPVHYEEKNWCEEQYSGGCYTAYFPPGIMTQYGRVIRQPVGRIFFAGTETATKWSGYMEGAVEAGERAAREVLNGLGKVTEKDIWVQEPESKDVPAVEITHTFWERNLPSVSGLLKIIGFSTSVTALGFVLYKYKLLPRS

Sequence of Acetylcholinesterase (Electrophorus electricus) (O42275 24-633 limits assumed): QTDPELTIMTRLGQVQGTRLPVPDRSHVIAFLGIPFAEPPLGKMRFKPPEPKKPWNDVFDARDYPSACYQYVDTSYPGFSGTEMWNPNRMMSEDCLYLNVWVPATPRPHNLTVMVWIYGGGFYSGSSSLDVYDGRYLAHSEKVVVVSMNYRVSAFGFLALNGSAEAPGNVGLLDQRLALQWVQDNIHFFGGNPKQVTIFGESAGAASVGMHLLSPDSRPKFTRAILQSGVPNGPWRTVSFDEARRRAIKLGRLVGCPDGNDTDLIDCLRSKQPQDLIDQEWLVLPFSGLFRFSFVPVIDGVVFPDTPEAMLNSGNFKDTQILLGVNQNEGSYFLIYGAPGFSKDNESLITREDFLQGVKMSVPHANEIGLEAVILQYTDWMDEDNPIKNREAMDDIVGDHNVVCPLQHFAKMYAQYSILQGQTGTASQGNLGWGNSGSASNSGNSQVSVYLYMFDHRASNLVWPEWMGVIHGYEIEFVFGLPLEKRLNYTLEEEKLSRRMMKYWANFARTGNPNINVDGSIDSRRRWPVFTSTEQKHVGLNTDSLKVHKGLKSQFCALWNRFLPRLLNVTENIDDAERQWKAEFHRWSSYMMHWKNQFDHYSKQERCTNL
Sequence of Acetylcholinesterase (O42275 whole entry): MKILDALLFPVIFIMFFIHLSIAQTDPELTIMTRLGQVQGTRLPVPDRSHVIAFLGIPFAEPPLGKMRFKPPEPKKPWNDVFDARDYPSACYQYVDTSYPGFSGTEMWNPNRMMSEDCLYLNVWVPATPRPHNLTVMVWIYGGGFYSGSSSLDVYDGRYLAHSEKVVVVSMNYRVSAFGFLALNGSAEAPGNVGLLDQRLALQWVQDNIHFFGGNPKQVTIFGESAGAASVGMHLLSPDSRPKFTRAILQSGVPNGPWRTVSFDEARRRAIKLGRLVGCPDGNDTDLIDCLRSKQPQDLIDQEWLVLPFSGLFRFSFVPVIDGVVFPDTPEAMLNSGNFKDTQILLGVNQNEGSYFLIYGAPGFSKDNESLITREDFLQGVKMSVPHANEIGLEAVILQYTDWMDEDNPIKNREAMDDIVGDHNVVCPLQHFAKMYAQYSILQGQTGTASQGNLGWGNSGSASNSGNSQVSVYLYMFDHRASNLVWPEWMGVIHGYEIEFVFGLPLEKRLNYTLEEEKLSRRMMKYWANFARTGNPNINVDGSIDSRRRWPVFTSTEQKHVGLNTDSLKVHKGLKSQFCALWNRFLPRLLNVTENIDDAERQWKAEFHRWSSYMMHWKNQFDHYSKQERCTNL
Sequence of Cholinesterase (Equus caballus) (P81908 whole entry): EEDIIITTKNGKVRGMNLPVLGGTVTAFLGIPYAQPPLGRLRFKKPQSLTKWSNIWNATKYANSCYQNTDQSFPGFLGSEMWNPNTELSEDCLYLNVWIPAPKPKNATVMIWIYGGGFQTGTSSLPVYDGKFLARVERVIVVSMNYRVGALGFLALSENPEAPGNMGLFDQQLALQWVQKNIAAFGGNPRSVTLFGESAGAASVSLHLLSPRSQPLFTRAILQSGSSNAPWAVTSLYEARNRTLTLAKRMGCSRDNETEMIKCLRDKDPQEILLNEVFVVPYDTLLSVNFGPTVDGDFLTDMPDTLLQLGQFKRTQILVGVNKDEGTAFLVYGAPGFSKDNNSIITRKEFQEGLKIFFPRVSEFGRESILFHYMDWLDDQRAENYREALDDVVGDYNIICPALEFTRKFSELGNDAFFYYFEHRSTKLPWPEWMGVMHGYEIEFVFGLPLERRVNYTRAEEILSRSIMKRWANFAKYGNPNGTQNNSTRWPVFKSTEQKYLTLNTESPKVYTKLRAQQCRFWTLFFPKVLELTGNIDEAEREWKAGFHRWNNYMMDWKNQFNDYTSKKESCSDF

SMILES: O=c1c2ccccc2oc2ccc(OCCCCCN3CCCCCC3)cc12
- Activity [1]: 90.6%
- inhibition in vivo at 22.5 mg/kg [2]: 36.1%
- Activity [3]: 130%
- inhibition in vivo at 30 mg/kg [4]: 77.9%
- Activity [5]: 92%
- Activity [6]: 102.8%
- inhibition in vivo at 22.5 mg/kg [7]: 32.8%
- Activity [8]: 88.5%
- inhibition [9]: Active
- Activity [10]: Active
- inhibition [11]: Active
- inhibition in vivo at 22.5 mg/kg [12]: 26.5%
- inhibition in vivo at 30 mg/kg [13]: 57.8%
- Activity [14]: 116%
- pIC50 [15]: 6.74
- Activity [16]: 96%
- Activity [17]: Dose-dependent effect
- inhibition at 10 µM [18]: < 50%
